For experiment [1], the system named is phosphorylated AKT Ser473 (pAKT S473), mTORC2 activity, PC3 cells. The experiment in a line: mTOR target engagement assay, immunofluorescent cell-based, pAKT S473 readout (mTORC2 activity). Put shortly: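 After blocking, cells were stained overnight at 4 °C with anti-pAKT S473 antibody, then a fluorescent secondary; inhibition was read as reduced fluorescence intensity.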

In experiment [2] the test system is phosphorylated 4E-BP1 Thr37/46 (p4E-BP1 Thr37/46), mTORC1 activity, PC3 cells. The experiment in a line: mTOR target engagement assay, immunofluorescent cell-based, p4E-BP1 Thr37/46 readout (mTORC1 activity). The settings on record: Homo sapiens, read-out: p4E-BP1 Thr37/46 IC50. Put shortly:
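Read-out is fluorescence intensity of immunostained p4E-BP1 Thr37/46 in fixed PC3 cells, fitted to a logistic curve for IC50 with DMSO-only wells as top. Cells had been exposed to serial compound dilutions for ninety minutes at 37° C in 5% FBS medium with 0.25% DMSO.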

The mark [3] stands for this setting: Homo sapiens, PC-3, Table 3-1, PC3 cells.
Setting [4] is: Homo sapiens, PC-3, PC3 cells, compound treatment ninety minutes at 37° C.
The mark [5] stands for this setting: PC-3, PC3 cells, compound treatment ninety minutes at 37° C.

For 19 compounds, IC50 results are on record in patent publication US9227971B2, “Pyrazolo[1,5-a]pyrimidine compounds as mTOR inhibitors” (Merck Sharp & Dohme Corp., priority 2010, dated 2016).

Like-named read-outs stand apart in the source and are kept apart here.

For `COc1ccc(-c2ccc(-c3cnn4c(N)c(S(C)(=O)=O)c([C@@H]5C[C@H]6CC[C@@H](C5)N6C(=O)c5nnc[nH]5)nc34)cn2)cc1Cl` [Compound 3.51, ((1R,3s,5S)-3-(7-amino-3-(6-(3-chloro-4-methoxyphenyl)pyridin-3-yl)-6-(methylsulfonyl)pyrazolo[1,5-a]pyrimidin-5-yl)-8-azabicyclo[3.2.1]octan-8-yl)(4H-1,2,4-triazol-3-yl)methanone], the IC50 lay within 1 to 100 nM in experiment [1] (setting [3]) and 1 to 100 nM in experiment [2] (PC-3, Table 3-1, PC3 cells).
With `CC(=O)c1c([C@@H]2C[C@H]3CC[C@@H](C2)N3C(=O)c2cc(N)n[nH]2)nc2c(-c3ccc(C(O)(C(F)(F)F)C(F)(F)F)nc3)cnn2c1N` [Compound 7.79, 1-(7-amino-5-((1R,3s,5S)-8-(3-amino-1H-pyrazole-5-carbonyl)-8-azabicyclo[3.2.1]octan-3-yl)-3-(6-(1,1,1,3,3,3-hexafluoro-2-hydroxypropan-2-yl)pyridin-3-yl)pyrazolo[1,5-a]pyrimidin-6-yl)ethanone], the IC50 in experiment [1] (Homo sapiens, PC-3, PC3 cells) lay within 100 to 1000 nM; in experiment [2] (PC-3, PC3 cells), 100 to 1000 nM.
For `CC(=O)c1c([C@@H]2C[C@H]3CC[C@@H](C2)N3C(=O)c2nnc[nH]2)nc2c(-c3ccc(C4(O)CCC4)nc3)cnn2c1N` [Compound 7.40, 1-(5-((1R,3s,5S)-8-(4H-1,2,4-triazole-3-carbonyl)-8-azabicyclo[3.2.1]octan-3-yl)-7-amino-3-(6-(1-hydroxycyclobutyl)pyridin-3-yl)pyrazolo[1,5-a]pyrimidin-6-yl)ethanone], the IC50 in experiment [1] (Homo sapiens, PC-3, Table 7-8, PC3 cells) fell in the range of 1 to 100 nM; in experiment [2] (PC-3, Table 7-8, PC3 cells), 1 to 100 nM.
As to `N#Cc1c([C@@H]2C[C@H]3CC[C@@H](C2)N3C(=O)c2nnc[nH]2)nc2c(-c3ccc(-c4nccs4)nc3)cnn2c1N` [Compound 5.3, 5-((1R,3s,5S)-8-(4H-1,2,4-triazole-3-carbonyl)-8-azabicyclo[3.2.1]octan-3-yl)-7-amino-3-(6-(thiazol-2-yl)pyridin-3-yl)pyrazolo[1,5-a]pyrimidine-6-carbonitrile], the IC50 in experiment [1] (setting [4]) and in experiment [2] (setting [5]) was 1 to 100 nM each time.
Turning to `[2H]C([2H])([2H])n1ccc(-c2ccc(-c3cnn4c(N)c(C(C)=O)c([C@@H]5C[C@H]6CC[C@@H](C5)N6C(=O)c5nnc[nH]5)nc34)cn2)n1` [Compound 1.1.82, 1-(5-((1R,3s,5S)-8-(4H-1,2,4-triazole-3-carbonyl)-8-azabicyclo[3.2.1]octan-3-yl)-7-amino-3-(6-(1-methyl-(D3)-1H-pyrazol-3-yl)pyridin-3-yl)pyrazolo[1,5-a]pyrimidin-6-yl)ethanone], the IC50 in experiment [1] (setting [4]) and in experiment [2] (setting [5]) was 100 to 1000 nM in each case.
Consider `CC(=O)c1c([C@@H]2C[C@H]3CC[C@@H](C2)N3C(=O)c2nnc[nH]2)nc2c(-c3ccc(C)nc3)cnn2c1N` [Compound 1.1.79, 1-(5-((1R,3s,5S)-8-(4H-1,2,4-triazole-3-carbonyl)-8-azabicyclo[3.2.1]octan-3-yl)-7-amino-3-(6-methylpyridin-3-yl)pyrazolo[1,5-a]pyrimidin-6-yl)ethanone], for which the IC50 in experiment [1] (setting [4]) and in experiment [2] (setting [5]) was 1 to 100 nM in each case.
Consider `CC(=O)c1c([C@@H]2C[C@H]3CC[C@@H](C2)N3C(=O)c2ccc[nH]2)nc2c(-c3ccc(-c4ccccc4)nc3)cnn2c1N` [Compound 1.1.43, 1-(5-((1R,3s,5S)-8-(1H-pyrrole-2-carbonyl)-8-azabicyclo[3.2.1]octan-3-yl)-7-amino-3-(6-phenylpyridin-3-yl)pyrazolo[1,5-a]pyrimidin-6-yl)ethanone], for which the IC50 in experiment [1] (setting [4]) and in experiment [2] (setting [5]) was 100 to 1000 nM each time.
Consider `CC(=O)c1c([C@@H]2C[C@H]3CC[C@@H](C2)N3C(=O)c2nnc[nH]2)nc2c(-c3cnc4c(c3)CCCC4O)cnn2c1N` (stereo partly drawn) [Compound 7.58, 1-(5-((1R,3s,5S)-8-(4H-1,2,4-triazole-3-carbonyl)-8-azabicyclo[3.2.1]octan-3-yl)-7-amino-3-(8-hydroxy-5,6,7,8-tetrahydroquinolin-3-yl)pyrazolo[1,5-a]pyrimidin-6-yl)ethanone], for which the IC50 fell in the range of 1 to 100 nM in experiment [1] (PC3 cells) and 1 to 100 nM in experiment [2] (PC-3, PC3 cells).
Turning to `CS(=O)(=O)c1c([C@@H]2C[C@H]3CC[C@@H](C2)N3C(=O)CO)nc2c(-c3ccc(-c4ccc(F)cc4F)nc3)cnn2c1N` [Compound 3.128, 1-((1R,3s,5S)-3-(7-amino-3-(6-(2,4-difluorophenyl)pyridin-3-yl)-6-(methylsulfonyl)pyrazolo[1,5-a]pyrimidin-5-yl)-8-azabicyclo[3.2.1]octan-8-yl)-2-hydroxyethanone], the IC50 in experiment [1] (setting [3]) fell in the range of 100 to 1000 nM; in experiment [2] (PC-3, Table 3-1, PC3 cells), 100 to 1000 nM.
Regarding `CC(=O)c1c([C@@H]2C[C@H]3CC[C@@H](C2)N3C(=O)c2nnc[nH]2)nc2c(-c3ccc(-c4cccc(F)c4F)nc3)cnn2c1N` [Compound 1.1.61, 1-(5-((1R,3s,5S)-8-(4H-1,2,4-triazole-3-carbonyl)-8-azabicyclo[3.2.l]octan-3-yl)-7-amino-3-(6-(2,3-difluorophenyl)pyridin-3-yl)pyrazolo[1,5-a]pyrimidin-6-yl)ethanone], the IC50 in experiment [1] (setting [4]) and in experiment [2] (setting [5]) was 1 to 100 nM each time.
On to `COc1ccc(-c2ccc(-c3cnn4c(N)c(S(C)(=O)=O)c([C@@H]5C[C@H]6CC[C@@H](C5)N6C(=O)c5nnc(N)[nH]5)nc34)cn2)cc1F` [Compound 3.100, ((1R,3s,5S)-3-(7-amino-3-(6-(3-fluoro-4-methoxyphenyl)pyridin-3-yl)-6-(methylsulfonyl)pyrazolo[1,5-a]pyrimidin-5-yl)-8-azabicyclo[3.2.1]octan-8-yl)(5-amino-4H-1,2,4-triazol-3-yl)methanone], for which the IC50 in experiment [1] (setting [3]) was 1 to 100 nM; in experiment [2] (PC-3, Table 3-1, PC3 cells), 1 to 100 nM.
Turning to `CC(=O)c1c(C2CC3COCC(C2)N3C(=O)c2nc[nH]n2)nc2c(-c3cnn(-c4ccccc4)c3)cnn2c1N` (centres unmarked) [Compound 8.26, 1-(5-(9-(1H-1,2,4-triazole-3-carbonyl)-3-oxa-9-azabicyclo[3.3.1]nonan-7-yl)-7-amino-3-(1-phenyl-1H-pyrazol-4-yl)pyrazolo[1,5-a]pyrimidin-6-yl)ethanone], the IC50 was 1 to 100 nM in experiment [1] (Homo sapiens, PC-3, PC3 cells) and 100 to 1000 nM in experiment [2] (PC-3, PC3 cells).
Consider `CS(=O)(=O)c1c([C@@H]2C[C@H]3CC[C@@H](C2)N3C(=O)c2cnn[nH]2)nc2c(-c3ccc(-c4ccccc4)nc3)cnn2c1N` [Compound 3.3, ((1R,3s,5S)-3-(7-amino-6-(methylsulfonyl)-3-(6-phenylpyridin-3-yl)pyrazolo[1,5-a]pyrimidin-5-yl)-8-azabicyclo[3.2.1]octan-8-yl)(1H-1,2,3,-triazol-5-yl)methanone], for which the IC50 was 1 to 100 nM in experiment [1] (setting [3]) and 100 to 1000 nM in experiment [2] (PC-3, Table 3-1, PC3 cells).
For `CC(=O)c1c([C@@H]2C[C@H]3CC[C@@H](C2)N3C(=O)CO)nc2c(-c3ccc(-c4nc[nH]n4)nc3)cnn2c1N` [Compound 1.1.102, 1-((1R,3s,5S)-3-(3-(6-(1H-1,2,4-triazol-3-yl)pyridin-3-yl)-6-acetyl-7-aminopyrazolo[1,5-a]pyrimidin-5-yl)-8-azabicyclo[3.2.1]octan-8-yl)-2-hydroxyethanone], the IC50 in experiment [1] (setting [4]) and in experiment [2] (setting [5]) was 1 to 100 nM throughout.
Regarding `COCC(=O)N1[C@@H]2CC[C@H]1C[C@H](c1nc3c(-c4ccc(-c5ncc[nH]5)nc4)cnn3c(N)c1C(C)=O)C2` [Compound 6.16, 1-((1R,3s,5S)-3-(3-(6-(1H-imidazol-2-yl)pyridin-3-yl)-6-acetyl-7-aminopyrazolo[1,5-a]pyrimidin-5-yl)-8-azabicyclo[3.2.1]octan-8-yl)-2-methoxyethanone], the IC50 lay in the range of 1 to 100 nM in experiment [1] (Homo sapiens, PC-3, Table 6-1, PC3 cells) and 1 to 100 nM in experiment [2] (PC-3, Table 6-1, PC3 cells).
As for `CC(=O)c1c([C@@H]2C[C@H]3CC[C@@H](C2)N3C(=O)c2nnc[nH]2)nc2c(-c3cccnc3)cnn2c1N` [Compound 1.1.80, 1-(5-((1R,3s,5S)-8-(4H-1,2,4-triazole-3-carbonyl)-8-azabicyclo[3.2.1]octan-3-yl)-7-amino-3-(pyridin-3-yl)pyrazolo[1,5-a]pyrimidin-6-yl)ethanone], the IC50 in experiment [1] (setting [4]) and in experiment [2] (setting [5]) was 100 to 1000 nM each time.
For `CC(=O)c1c([C@@H]2C[C@H]3CC[C@@H](C2)N3C(=O)CO)nc2c(-c3ccc(-c4ccccc4)nc3)cnn2c1N` [Compound 1.1.5, 1-((1R,3s,5S)-3-(6-acetyl-7-amino-3-(6-phenylpyridin-3-yl)pyrazolo[1,5-a]pyrimidin-5-yl)-8-azabicyclo[3.2.1]octan-8-yl)-2-hydroxyethanone], the IC50 in experiment [1] (setting [4]) and in experiment [2] (setting [5]) was 1 to 100 nM throughout.
Consider `Cc1n[nH]cc1C(=O)N1[C@@H]2CC[C@H]1C[C@H](c1nc3c(-c4ccc(-c5ccccc5)nc4)cnn3c(N)c1S(C)(=O)=O)C2` [Compound 3.80, ((1R,3s,5S)-3-(7-amino-6-(methylsulfonyl)-3-(6-phenylpyridin-3-yl)pyrazolo[1,5-a]pyrimidin-5-yl)-8-azabicyclo[3.2.1]octan-8-yl)(3-methyl-1H-pyrazol-4-yl)methanone], for which the IC50 in experiment [1] (setting [3]) was 1 to 100 nM; in experiment [2] (PC-3, Table 3-1, PC3 cells), 1 to 100 nM.
For the compound `COc1ccc(-c2ccc(-c3cnn4c(N)c(C(C)=O)c([C@@H]5C[C@H]6CC[C@@H](C5)N6C(=O)CO)nc34)cn2)cc1F` [Compound 1.1.58, 1-((1R,3s,5S)-3-(6-acetyl-7-amino-3-(6-(3-fluoro-4-methoxyphenyl)pyridin-3-yl)pyrazolo[1,5-a]pyrimidin-5-yl)-8-azabicyclo[3.2.1]octan-8-yl)-2-hydroxyethanone], the IC50 in experiment [1] (setting [4]) and in experiment [2] (setting [5]) was 100 to 1000 nM in each case.
